# From PubChem BioAssay (NCI)
#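 The compound was tested at five concentrations on cells cultured in 96-well plates, with a 48-hour exposure period. Here, GI50 denotes the concentration required for 50% inhibition of growth. Definition used: TGI = concentration required for complete inhibition of growth.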
# What was measured:
# Assay in all cases: inhibition of tumour cell growth, NCI panel, 48 h
# HCT-116 colon = tested on: HCT-116 colon
# ACHN renal = tested on: ACHN renal
# SF-268 CNS = tested on: SF-268 CNS
# SK-MEL-2 melanoma = tested on: SK-MEL-2 melanoma
# UACC-62 melanoma = tested on: UACC-62 melanoma
# SNB-75 CNS = tested on: SNB-75 CNS
# LOX IMVI melanoma = tested on: LOX IMVI melanoma
# SNB-19 CNS = tested on: SNB-19 CNS
# 786-0 renal = tested on: 786-0 renal
# CCRF-CEM leukemia = tested on: CCRF-CEM leukemia
# MDA-MB-231 breast = tested on: MDA-MB-231 breast
# M14 melanoma = tested on: M14 melanoma
# HT29 colon = tested on: HT29 colon
# SK-OV-3 ovarian = tested on: SK-OV-3 ovarian
# HOP-92 NSCLC = tested on: HOP-92 NSCLC
# A549 NSCLC = tested on: A549 NSCLC
# NCI-H460 lung = tested on: NCI-H460 lung
# NCI/ADR-RES ovarian = tested on: NCI/ADR-RES ovarian
# A498 renal = tested on: A498 renal
# SR leukemia = tested on: SR leukemia
# HS 578T breast = tested on: HS 578T breast
# PC-3 prostate = tested on: PC-3 prostate
# OVCAR-5 ovarian = tested on: OVCAR-5 ovarian
# HOP-62 NSCLC = tested on: HOP-62 NSCLC
# KM12 colon = tested on: KM12 colon
# SN12C renal = tested on: SN12C renal
# SF-295 CNS = tested on: SF-295 CNS
# U251 CNS = tested on: U251 CNS
# IGROV1 ovarian = tested on: IGROV1 ovarian
# OVCAR-8 ovarian = tested on: OVCAR-8 ovarian
# NCI-H226 lung = tested on: NCI-H226 lung
# OVCAR-3 ovarian = tested on: OVCAR-3 ovarian
# EKVX NSCLC = tested on: EKVX NSCLC
# HCC-2998 colon = tested on: HCC-2998 colon
# MALME-3M melanoma = tested on: MALME-3M melanoma
# K-562 leukemia = tested on: K-562 leukemia
# BT-549 breast = tested on: BT-549 breast
# MCF7 breast = tested on: MCF7 breast
# MDA-MB-435 = tested on: MDA-MB-435
# TK-10 renal = tested on: TK-10 renal
# T-47D breast = tested on: T-47D breast
# NCI-H23 lung = tested on: NCI-H23 lung
# SF-539 CNS = tested on: SF-539 CNS
# RXF 393 renal = tested on: RXF 393 renal
# COLO 205 colon = tested on: COLO 205 colon
# HL-60(TB) leukemia = tested on: HL-60(TB) leukemia
# RPMI-8226 leukemia = tested on: RPMI-8226 leukemia
# CAKI-1 renal = tested on: CAKI-1 renal
# DU-145 prostate = tested on: DU-145 prostate
# SK-MEL-5 melanoma = tested on: SK-MEL-5 melanoma
# SW-620 colon = tested on: SW-620 colon
# NCI-H522 lung = tested on: NCI-H522 lung
# HCT-15 colon = tested on: HCT-15 colon
# OVCAR-4 ovarian = tested on: OVCAR-4 ovarian
# SK-MEL-28 melanoma = tested on: SK-MEL-28 melanoma
# MOLT-4 leukemia = tested on: MOLT-4 leukemia
# UO-31 renal = tested on: UO-31 renal
compound,measurement,setting,value
CCCC(=O)NC(c1ccc2c(c1)OCO2)c1ccc2cccnc2c1O (centres undefined),GI50,HCT-116 colon,387 nM
same,TGI,HCT-116 colon,56100 nM
same,GI50,ACHN renal,466 nM
same,TGI,ACHN renal,> 100000 nM
same,GI50,SF-268 CNS,1460 nM
same,TGI,SF-268 CNS,> 100000 nM
same,GI50,SK-MEL-2 melanoma,4990 nM
same,TGI,SK-MEL-2 melanoma,> 100000 nM
same,GI50,UACC-62 melanoma,1300 nM
same,TGI,UACC-62 melanoma,7300 nM
same,GI50,SNB-75 CNS,2180 nM
same,TGI,SNB-75 CNS,73000 nM
same,GI50,LOX IMVI melanoma,808 nM
same,TGI,LOX IMVI melanoma,> 100000 nM
same,GI50,SNB-19 CNS,2280 nM
same,TGI,SNB-19 CNS,> 100000 nM
same,GI50,786-0 renal,1640 nM
same,TGI,786-0 renal,14700 nM
same,GI50,CCRF-CEM leukemia,460 nM
same,TGI,CCRF-CEM leukemia,> 100000 nM
same,GI50,MDA-MB-231 breast,1640 nM
same,TGI,MDA-MB-231 breast,> 100000 nM
same,GI50,M14 melanoma,1080 nM
same,TGI,M14 melanoma,20600 nM
same,GI50,HT29 colon,3920 nM
same,TGI,HT29 colon,> 100000 nM
same,GI50,SK-OV-3 ovarian,1890 nM
same,TGI,SK-OV-3 ovarian,29700 nM
same,GI50,HOP-92 NSCLC,1550 nM
same,TGI,HOP-92 NSCLC,36100 nM
same,GI50,A549 NSCLC,2270 nM
same,TGI,A549 NSCLC,> 100000 nM
same,GI50,NCI-H460 lung,527 nM
same,TGI,NCI-H460 lung,10600 nM
same,GI50,NCI/ADR-RES ovarian,443 nM
same,TGI,NCI/ADR-RES ovarian,16600 nM
same,GI50,A498 renal,3220 nM
same,TGI,A498 renal,12600 nM
same,GI50,SR leukemia,402 nM
same,TGI,SR leukemia,> 100000 nM
same,GI50,HS 578T breast,5760 nM
same,TGI,HS 578T breast,78800 nM
same,GI50,PC-3 prostate,729 nM
same,TGI,PC-3 prostate,> 100000 nM
same,GI50,OVCAR-5 ovarian,2750 nM
same,TGI,OVCAR-5 ovarian,> 100000 nM
same,GI50,HOP-62 NSCLC,1200 nM
same,TGI,HOP-62 NSCLC,> 100000 nM
same,GI50,KM12 colon,2090 nM
same,TGI,KM12 colon,> 100000 nM
same,GI50,SN12C renal,2280 nM
same,TGI,SN12C renal,> 100000 nM
same,GI50,SF-295 CNS,728 nM
same,TGI,SF-295 CNS,42600 nM
same,GI50,U251 CNS,1150 nM
same,TGI,U251 CNS,> 100000 nM
same,GI50,IGROV1 ovarian,888 nM
same,TGI,IGROV1 ovarian,> 100000 nM
same,GI50,OVCAR-8 ovarian,1480 nM
same,TGI,OVCAR-8 ovarian,> 100000 nM
same,GI50,NCI-H226 lung,2210 nM
same,TGI,NCI-H226 lung,8630 nM
same,GI50,OVCAR-3 ovarian,427 nM
same,TGI,OVCAR-3 ovarian,15400 nM
same,GI50,EKVX NSCLC,1730 nM
same,TGI,EKVX NSCLC,21400 nM
same,GI50,HCC-2998 colon,2210 nM
same,TGI,HCC-2998 colon,> 100000 nM
same,GI50,MALME-3M melanoma,2170 nM
same,TGI,MALME-3M melanoma,> 100000 nM
same,GI50,K-562 leukemia,976 nM
same,TGI,K-562 leukemia,> 100000 nM
same,GI50,BT-549 breast,2090 nM
same,TGI,BT-549 breast,83700 nM
same,GI50,MCF7 breast,748 nM
same,TGI,MCF7 breast,> 100000 nM
same,GI50,MDA-MB-435,3700 nM
same,TGI,MDA-MB-435,> 100000 nM
same,GI50,TK-10 renal,2970 nM
same,TGI,TK-10 renal,> 100000 nM
same,GI50,T-47D breast,2240 nM
same,TGI,T-47D breast,> 100000 nM
same,GI50,NCI-H23 lung,1780 nM
same,TGI,NCI-H23 lung,> 100000 nM
same,GI50,SF-539 CNS,1410 nM
same,TGI,SF-539 CNS,> 100000 nM
same,GI50,RXF 393 renal,1470 nM
same,TGI,RXF 393 renal,7540 nM
same,GI50,COLO 205 colon,2730 nM
same,TGI,COLO 205 colon,> 100000 nM
same,GI50,HL-60(TB) leukemia,317 nM
same,TGI,HL-60(TB) leukemia,4760 nM
same,GI50,RPMI-8226 leukemia,1030 nM
same,TGI,RPMI-8226 leukemia,27800 nM
same,GI50,CAKI-1 renal,669 nM
same,TGI,CAKI-1 renal,> 100000 nM
same,GI50,DU-145 prostate,2000 nM
same,TGI,DU-145 prostate,> 100000 nM
same,GI50,SK-MEL-5 melanoma,1740 nM
same,TGI,SK-MEL-5 melanoma,3900 nM
same,GI50,SW-620 colon,1200 nM
same,TGI,SW-620 colon,> 100000 nM
same,GI50,NCI-H522 lung,1630 nM
same,TGI,NCI-H522 lung,> 100000 nM
same,GI50,HCT-15 colon,394 nM
same,TGI,HCT-15 colon,24600 nM
same,GI50,OVCAR-4 ovarian,375 nM
same,TGI,OVCAR-4 ovarian,6020 nM
same,GI50,SK-MEL-28 melanoma,3030 nM
same,TGI,SK-MEL-28 melanoma,> 100000 nM
same,GI50,MOLT-4 leukemia,441 nM
same,TGI,MOLT-4 leukemia,> 100000 nM
same,GI50,UO-31 renal,557 nM
same,TGI,UO-31 renal,18400 nM
